Measured values as given in PubChem BioAssay AID179 (DTP/NCI, 2004).
Several values for one entry are separate records, joined by “and”; a condition that tells them apart may be missing. Equal values may be shown once. Activity calls are given as the source filed them.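 Rule for the calls: active = compounds giving half or more protection of infected cells from virus-caused growth loss, again on retest; inactive = the rest.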 Where a SMILES comes first, the peptide text is derived from it.

System: CEM cells HIV-1 protection, formazan growth assay
Experiment: NCI AIDS Antiviral Assay
Settings: for IC50: measured here: growth of uninfected CEM cells
Outline: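 Protection of CEM cells against HIV-1 was scored from cell growth (soluble formazan) across five concentrations, with parallel uninfected cells. Lack of protection may reflect toxicity.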

SMILES | EC50 | IC50 | outcome
CCN1CCC(O)(/C=C/c2ccc(C(C)C)cc2)C(C(=O)/C=C/c2ccc(C(C)C)cc2)C1 (stereo not drawn) | > 200 µM | 1.78 µM | –
CC(=O)CCS(=O)(=O)O | > 200 µM | > 200 µM | –
CN(C)c1nc(N)c(N=O)c(=O)[nH]1 | > 200 µM | 178 µM | –
CC1(CO)C2CC3CN(C(=O)c4ccccc4)C(C2)[C@]31C (stereo partly drawn) | – | – | inactive
COc1cc(Oc2nc3c(N)cc(C(F)(F)F)cc3nc2-c2ccccc2)cc(OC)c1OC | > 20 µM | 14.1 µM | –
NC(=O)C12C(=O)NC(=O)C1(C(=O)O)C21CCCC1 (stereo not drawn) | > 200 µM | > 200 µM | –
O=C(/N=C/c1c(O)c2ccccc2oc1=O)Nc1ccccc1 | > 17 µM | > 17 µM | –
CC(C)CC1=CC(=O)CN(CCc2c[nH]c3ccccc23)C1 | > 240 µM | 126 µM | –
COc1ccc(N=C/C=C/Nc2ccc(OC)cc2)cc1 | > 200 µM | 7.41 µM | –
C=CCSCn1ncc2ccc([N+](=O)[O-])cc21 | > 200 µM | 33.9 µM | –
COc1cc2c(cc1O)C1C(O2)c2cc3c(cc2OC1(C)C)OC(C)(C)CC3 (stereo not drawn) | > 200 µM | 28.8 µM | –
Cc1cn(C2CC3OP(=O)(OCc4ccccc4)OCC3O2)c(=O)[nH]c1=O (stereo not drawn) | > 3.63 µM | > 3.63 µM | –
O=c1c2sc3nc(NCCN4CCCCC4)ncc3c2ncn1-c1ccccc1 | > 200 µM | 117 µM | –
CN(C)CCNC(=O)c1ccc(Cl)c2c(Nc3ccc(S(=O)(=O)N=C(N)N)cc3)c3ccccc3nc12 | – | – | inactive
COC(=O)[C@@]12OC[C@]34[C@H]([C@@H](O)[C@@H]1O)[C@@]1(C)CC(=O)C(O)=C(C)[C@@H]1C[C@H]3OC(=O)[C@H](OC(=O)C(N)Cc1ccccc1)[C@@H]24 (stereo partly drawn) | – | – | inactive
CC(=O)Nc1cc(N=Nc2ccc(N=Nc3ccc(NC(=O)c4ccc(N)cc4)cc3C)cc2C)c(S(=O)(=O)O)cc1N=Nc1cccc(C(=O)O)c1 | 20.9 µM | 170 µM | –
O=C1CCCCC/C1=C\c1ccc(Cl)cc1 | > 200 µM | 27.5 µM | –
CCCCCCCCCCCCCc1nn[nH]n1 | > 102 µM | > 100 µM | –
CC(C)CC(N)C(=O)NC(Cc1ccc(O)cc1)C(=O)NC(CCC(=O)O)C(=O)N1CCCC1C(=O)NC(CO)C(=O)NC(Cc1ccc(O)cc1)C(=O)NC(C)C(=O)N1CCCC1C(=O)NC(CC(N)=O)C(=O)NC(Cc1cnc[nH]1)C(=O)NC(Cc1ccccc1)C(=O)O (stereo not drawn) (H-LYEPSYAPNHF-OH; configuration not given here) | – | – | inactive
O=C(/N=C/c1c(O)c2ccccc2oc1=O)Oc1ccccc1 | > 100 µM | 33.1 µM | –
CS1(=O)=CC(=O)CC(c2ccccc2)C1 (stereo not drawn) | > 1120 µM | > 1120 µM | –

SMILES | EC50 | IC50 | outcome
COCC(C)(COP(=O)(N1CCOCC1)N1CCOCC1)CC(C)COP(=O)(N1CCOCC1)N1CCOCC1 (stereo not drawn) | – | – | inactive
COc1ccc2c3c(c4cc(OC)c(OC)cc4c2c1)C[C@H]1CCCCN1C3 | > 31.6 µM | 0.01 µM | –
O=C1Sc2ccccc2C(=O)N2CCSC12 (stereo not drawn) | 126 µM | > 200 µM | –
CC(=O)OC1CC2C(C)(C)C(=O)C=C[C@]2(C)C2CCC3(C)C(c4ccoc4)[C@@H](O)[C@H]4O[C@]43[C@]12C (stereo partly drawn) | > 57.5 µM | 6.17 µM | –
Cc1ccc(-c2c(N)nc(NC#N)nc2CCC(=O)Nc2ccccc2[N+](=O)[O-])cc1 | – | – | inactive
CC1SC(N)=NN=C1c1c(O)c2ccccc2oc1=O (stereo not drawn) | > 200 µM | 148 µM | –
N#CCCN(c1ccc(C=Nc2ccc(C(=O)O)cc2)cc1)S(=O)(=O)c1ccccc1 | > 302 µM | > 302 µM | –
O=C1OC(C2OC(=O)c3cc(O)c(O)c(O)c3-c3c(O)c(O)c4oc(=O)c5c(c(O)c(O)c6oc(=O)c3c4c65)-c3c(cc(O)c(O)c3O)C(=O)OCC2O)C2OC(=O)c3c(c(O)c(O)c(O)c3C2O)-c2c1cc(O)c(O)c2O (stereo not drawn) | 1.62 µM | 12 µM | –
CC(C)(C)OC(=O)N1CCCC1=O | > 200 µM | > 200 µM | –
CC(=O)Nc1ncc(Sc2ccc([N+](=O)[O-])cc2)s1 | > 200 µM | > 200 µM | –
C=C1C(=O)OC(CCCCC)C1C(=O)O (stereo not drawn) | – | – | inactive
CCCCCCCCCCCCCCCCCC(=O)NCC(COP(=O)([O-])OCC[N+](C)(C)C)OCC (stereo not drawn) | – | – | inactive
CCOC(=O)/C(=C/N1C(=O)/C(=C/c2cccc([N+](=O)[O-])c2)SC1=S)C(=O)c1ccccc1 | > 200 µM | 18.6 µM | –
CC(=O)C1(c2ccccc2)CCNCC1 | – | – | inactive
N#CC1=C2Sc3ccccc3N2[C@H](c2ccccc2)[C@H]2COC(=O)[C@@H]12 | > 151 µM | 38 µM | –
Nc1ccc2cc(S(=O)(=O)O)c(N=Nc3ccc(-c4ccc(N=Nc5c(S(=O)(=O)O)cc6cc(S(=O)(=O)O)cc(N)c6c5O)cc4)cc3)c(O)c2c1 | – | – | inactive
O=C(NCCCN1CCN(CCCNC(=O)c2ccc(N=Nc3ccccc3)cc2)CC1)c1ccc(N=Nc2ccccc2)cc1 | > 100 µM | 53.7 µM | –
CCN(CC)CCNc1ccc(CO)c2oc3ccc(O)cc3c(=O)c12 | > 191 µM | 1.32 µM | –
Oc1ccc(/C=C/c2cc(O)cc3c2[C@@H](c2cc(O)cc4c2[C@H](c2cc(O)cc5c2[C@@H](c2cc(O)cc(O)c2)[C@H](c2ccc(O)cc2)O5)[C@@H](c2ccc(O)cc2)O4)[C@H](c2ccc(O)cc2)O3)cc1 | 12.3 µM | 15.8 µM | –
O=c1ccc2ccc(O)c3c4c(=O)ccc5ccc(O)c(c1c23)c54 | – | – | inactive
CC(=O)N1c2ccccc2[C@H]2CCc3c([nH]c4ccccc34)[C@H]21 | > 20 µM | 12.9 µM | –

SMILES | EC50 | IC50 | outcome
CC(C)(C)OC(=O)NCC(CNC(=O)OC(C)(C)C)c1nc(C(N)=O)cs1 | > 200 µM | > 200 µM | –
CCN(CC)c1ccc(N=O)c(O)c1 | > 200 µM | 8.71 µM | –
CCOc1ccc(N2C(=O)NC3(c4ccccc4)N(C)C(=O)N(C)C23c2ccccc2)cc1 (stereo not drawn) | – | – | inactive
CCOC(=O)c1sc2[n+](c1C)C(=O)/C(=C/c1ccc([N+](=O)[O-])cc1)S2 | > 200 µM | 20.4 µM | –
COc1ccc(Br)c(CCCCCCCC(=O)O)c1 | > 100 µM | > 100 µM | –
O=[N+]([O-])c1ncc(N(CCO)CCO)s1 | > 200 µM | 85.1 µM | –
CC1=NN(C(=O)c2ccncc2)C(=O)C1 | > 200 µM | > 200 µM | –
COc1ccc2oc(=O)c(CC=C(C)C)c(O)c2c1C | > 200 µM | > 100 µM | –
CCOC(=O)c1cc(I)c(-c2cc(C)no2)n1C | > 200 µM | 37.2 µM | –
Cn1c(COC(=O)NC2CCCCC2)c(COC(=O)NC2CCCCC2)c2ccc3ccccc3c21 | > 174 µM | 2.82 µM | –
O=C(/C=C/c1ccccc1)c1ccc(NCc2nc3ccccc3[nH]2)cc1 | > 20.4 µM | 11 µM | –
C/C1=C/C2OC(=O)C3(C)C2C(CC2(C)OC1=CC2=O)OC3(O)C(C)C (stereo not drawn) | > 102 µM | 10.5 µM | –
CN(C)CCN1C(=O)c2c(c3cccn3c3c2cnn3-c2ccccc2)C1=O | > 200 µM | > 200 µM | –
OC1COC2CC(Nc3ccccn3)OC12 (stereo not drawn) | > 200 µM | > 200 µM | –
O=C1NC(=O)/C(=C\c2cccc([N+](=O)[O-])c2)N1 | > 200 µM | 158 µM | –
O=C(O)c1ccc(CS(=O)(=O)c2ccccc2)c([N+](=O)[O-])c1 | > 776 µM | 575 µM | –
O=C(O)c1cc(/C=C/c2ccc(N=Nc3c(O)cc(O)cc3C(=O)O)c(C(=O)O)c2)ccc1N=Nc1c(O)cc(O)cc1C(=O)O | 16.6 µM and 3.89 µM | > 100 µM and 95.5 µM | –
CSc1c(N(C)C)c(=O)c1=S | > 200 µM | 4.9 µM | –
O=S(=O)(O)c1cc(N=Nc2ccc(O)cc2)ccc1/C=C/c1ccc(N=Nc2ccc(O)cc2)cc1S(=O)(=O)O | > 50.1 µM | 45.7 µM | –
N#CC[P+](c1ccccc1)(c1ccccc1)c1ccccc1 | > 200 µM | 141 µM | –
CC(C)/C(Cl)=N/OC(=O)Nc1ccc(F)c(Cl)c1 | > 20 µM | 3.31 µM | –

SMILES | EC50 | IC50 | outcome
Cc1ccc(O)c(C(c2cccc(C(c3cc(C)ccc3O)c3cc(C)ccc3O)c2)c2cc(C)ccc2O)c1 | > 20 µM | 3.31 µM | –
Cn1c2ccccc2[n+]2c(N)scc12 | > 200 µM | 39.8 µM | –
CCOC(=O)c1nc2cc(C(F)(F)F)ccc2nc1Oc1ccc(F)cc1 | > 200 µM | 186 µM | –
O=C(O)[C@@H]1OCCOCCO[C@@H](C(=O)O)[C@H](C(=O)O)OCCOCCO[C@H]1C(=O)O | > 562 µM | > 562 µM | –
Cc1ccsc1/C=N/Nc1ncccn1 | > 200 µM | > 200 µM | –
N#C/C(=C\c1cc(Br)c(O)c(Br)c1)c1ccccn1 | > 200 µM | 31.6 µM | –
O=C(NC(=O)c1c(F)cccc1F)Nc1ncc(Cl)cc1Cl | > 200 µM | > 200 µM | –
O=C(/C=C/c1ccccc1)NCCC1(O)C(=O)Nc2ccccc21 (stereo not drawn) | > 562 µM | 525 µM | –
COc1ccccc1/C=C/C(=O)c1sc(-c2cccnc2)nc1C | > 15.5 µM | > 15.5 µM | –
Cc1ccc(S(=O)(=O)N2CCNCCN(S(=O)(=O)c3ccc(C)cc3)CCNCC2)cc1 | > 126 µM | 51.3 µM | –
CC(=O)N(C)c1ccc2ncccc2c1[N+](=O)[O-] | > 1020 µM | 562 µM | –
CC(O)(/C=C/c1ccccc1)P(=O)(O)c1ccccc1 (stereo not drawn) | > 200 µM | > 200 µM | –
O=S(C/C=C/CS(=O)c1ccccc1)c1ccccc1 (stereo not drawn) | > 813 µM | 70.8 µM | –
COc1cccc(N=N/C(=N/NC(=O)c2cc(Cl)ccc2O)c2ccc(N(CCC#N)CCC#N)cc2C)c1 | > 200 µM | 29.5 µM | –
CN(C)c1ccc(/C=C(\C#N)C(=O)c2ccccc2)cc1 | > 29.5 µM | 6.17 µM | –
O=c1nc(NC(c2ccccc2)(c2ccccc2)c2ccccc2)ccn1CCO | – | – | inactive
CCOC(=O)c1cn2c(nc1=O)N[C@H]1CCCC[C@@H]12 | > 200 µM | > 200 µM | –
Cc1cc(CS(=O)(=O)/C=C/c2ccccc2[N+](=O)[O-])c(CS(=O)(=O)/C=C/c2ccccc2[N+](=O)[O-])cc1C | > 11.5 µM | > 11.5 µM | –
Nc1ccccc1C(=O)C(Br)C(Br)c1ccc2c(c1)OCO2 (stereo not drawn) | > 43.7 µM | 23.4 µM | –
O=C(O)c1ccc(C(=O)c2ccccc2C(=O)O)cc1C(=O)O | 19.1 µM | > 200 µM | –
